Results taken from patent US7932277B2, “Peptide inhibitors of hepatitis C virus replication” (InterMune, Inc., priority 2007, dated 2011).

Experiments:
[1] = molecular target: T1, NS3/NS4A-2 (full-length HCV NS3 protease complexed with NS4A-2) (Hepatitis C virus genotype 1a, UniProt P27958); assay: NS3 inhibition assay (NS3-NS4 protease assay); format: biochemical; conditions: recombinant full-length NS3/NS4A-2, RETS1 substrate, kinetic fluorescence read; read-out: NS3-NS4 IC50
T1 construct: Recombinant E. coli or Baculovirus full-length NS3; host or cells: E. coli or baculovirus (insect cells)
Protocol: Recombinant E. coli or Baculovirus full-length NS3 was diluted to 3.33 μM with assay buffer and transferred material to an eppendorf tube and place in water bath in 4° C. refrigerator. The appropriate amount of NS4A-2 to 8.3 mM in assay buffer was added to equal the volume of NS3 in step 2.1.1 (conversion factor −3.8 mg/272 μL assay buffer). The material was transferred to an eppendorf tube and place in water bath in 4° C. refrigerator.
After equilibration to 4° C., equal volumes of NS3 and NS4A-2 solutions were combined in an eppendorf tube, mix gently with a manual pipettor, and incubate mixture for 15 minutes in the 4° C. water bath. Final concentrations in the mixture are 1.67 μM NS3, 4.15 mM NS4A-2 (2485-fold molar excess NS4A-2).
After 15 minutes at 4° C., the NS3/NS4A-2 eppendorf tube was removed and place it in a room temperature water bath for 10 minutes. NS3/NS4A-2 was aliquoted at appropriate volumes and store at −80° C. (E. coli NS3 run at 2 nM in assay, aliquot at 25 μL. BV NS3 run at 3 nM in assay, aliquot at 30 μL).
Sample compounds were dissolved to 10 mM in DMSO then diluted to 2.5 mM (1:4) in DMSO. Typically, compounds were added to an assay plate at 2.5 mM concentration, yielding upon dilution a starting concentration of 50 microM in the assay inhibition curve. Compounds were serial diluted in assay buffer to provide test solutions at lower concentrations.
The E. coli. NS3/NS4A-2 was diluted to 4 nM NS3 (1:417.5 of 1.67 μM stock−18 μL1.67 μM stock+7497 μL assay buffer). The BV NS3/NS4A-2 was diluted to 6 nM NS3 (1:278.3 of 1.67 μM stock−24 μL1.67 μM stock+6655 μL assay buffer). Using the manual multichannel pipettor, careful not to introduce bubbles into the plate, add 50 μL assay buffer to wells A01-H01 of a black Costar 96-well polypropylene storage plate.
Using the manual multichannel pipettor, careful not to introduce bubbles into the plate, add 50 μL of diluted NS3/NS4A-2 from step 2.2.6 to wells A02-H12 of plate in step 2.2.7. Using the manual multichannel pipettor, careful not to introduce bubbles into the plate, transfer 25 μL of the wells in drug dilution plate in step 2.2.5 to corresponding wells in assay plate in step 2.2.8. Change tips on multichannel pipettor for each row of compounds transferred. Using the manual multichannel pipettor, careful not to introduce bubbles into the plate, mix the wells from the assay plate in step 2.2.9 by aspirating and dispensing 35 μL of the 75 μL in each well five times. Change tips on multichannel pipettor for each row of wells mixed. Cover plate with a polystyrene plate lid and pre-incubate the plate from step 2.2.10 containing NS3 protease and sample compounds 10 minutes at room temperature. While plate from step 2.2.11 is pre-incubating, dilute RETS1 substrate in a 15 mL polypropylene centrifuge tube. Dilute RETS1 substrate to 8 μM (1:80.75 of 646 μM stock−65 μL 646 μM stock+5184 μL assay buffer).
After the plate in step is done pre-incubating, and using the manual multichannel, add 25 μL of substrate to all wells on the plate. Quickly mix the plate as in step 2.2.10, mixing 65 μL of the 100 μL in the wells.
Read the plate in kinetic mode on the Molecular Devices SpectraMax Gemini XS plate reader. Reader settings: Read time: 30 minutes, Interval: 36 seconds, Reads: 51, Excitation λ: 335 nm, Emission λ: 495 nm, cutoff: 475 nm, Automix: off, Calibrate: once, PMT: high, Reads/well: 6, Vmax pts: 21 or 28/51 depending on length of linearity of reaction
IC50s are determined using a four parameter curve fit equation, and converted to Ki's using the following Km's: • Full-length E. coli NS3−2.03 μM • Full-length BV NS3−1.74 μM • where Ki=IC50/(1+[S]/Km)) • Quantitation by ELISA of the Selectable Marker Protein, Neomycin Phosphotransferase II (NPTII) in the HCV Sub-Genomic Replicon, GS4.3

[2] = test system: HCV sub-genomic replicon (1377/NS3-3') in HuH-7 hepatoma cells (GS4.3); assay: Quantitation by ELISA of NPTII in the HCV sub-genomic replicon, GS4.3; format: cell-based, hepatitis C virus (HCV); conditions: Hepatitis C virus, Huh-7; GS4.3 cells, 72 h incubation, NPTII ELISA; read-out: Replicon EC50
Protocol: The HCV sub-genomic replicon (1377/NS3-3′, accession No. AJ242652), stably maintained in HuH-7 hepatoma cells, was created by Lohmann et al. Science 285: 110-113 (1999). The replicon-containing cell culture, designated GS4.3, was obtained from Dr. Christoph Seeger of the Institute for Cancer Research, Fox Chase Cancer Center, Philadelphia, Pa.
GS4.3 cells were maintained at 37° C., 5% CO2, in DMEM (Gibco 11965-092) supplemented with L-glutamine 200 mM (100×) (Gibco25030-081), non-essential amino acids (NEAA) (Biowhittaker 13-114E), heat-inactivated (HI) Fetal Bovine Serum (FBS) (Hyclone SH3007.03) and 750 μg/mL geneticin (G418)(Gibco 10131-035). Cells were sub-divided 1:3 or 4 every 2-3 days.
24 h prior to the assay, GS4.3 cells were collected, counted, and plated in 96-well plates (Costar 3585) at 7500 cells/well in 100 μL standard maintenance medium (above) and incubated in the conditions above. To initiate the assay, culture medium was removed, cells were washed once with PBS (Gibco 10010-023) and 90 μl Assay Medium (DMEM, L-glutamine, NEAA, 10% HI FBS, no G418) was added. Inhibitors were made as a 10× stock in Assay Medium, (3-fold dilutions from 10 μM to 56 pM final concentration, final DMSO concentration 1%), 10 μL were added to duplicate wells, plates were rocked to mix, and incubated as above for 72 h.
An NPTII Elisa kit was obtained from AGDIA, Inc. (Compound direct ELISA test system for Neomycin Phosphotransferase II, PSP 73000/4800). Manufacturer's instructions were followed, with some modifications. 10×PEB-1 lysis buffer was made up to include 500 μM PMSF (Sigma P7626, 50 mM stock in isopropanol). After 72 h incubation, cells were washed once with PBS and 150 μL PEB-1 with PMSF was added per well. Plates were agitated vigorously for 15 minutes, room temperature, then frozen at −70° C. Plates were thawed, lysates were mixed thoroughly, and 100 μl were applied to an NPTII Elisa plate. A standard curve was made. Lysate from DMSO-treated control cells was pooled, serially diluted with PEB-1 with PMSF, and applied to duplicate wells of the ELISA plate, in a range of initial lysate amount of 150 μL-2.5 μL. In addition, 100 μL buffer alone was applied in duplicate as a blank. Plates were sealed and gently agitated at room temperature for 2 h. Following capture incubation, the plates were washed 5×300 μL with PBS-T (0.5% Tween-20, PBS-T was supplied in the ELISA kit). For detection, a 1× dilution of enzyme conjugate diluent MRS-2 (5×) was made in PBS-T, into which 1:100 dilutions of enzyme conjugates A and B were added, as per instructions. Plates were resealed, and incubated with agitation, covered, room temperature, for 2 h. The washing was then repeated and 100 μL of room temperature TMB substrate was added. After approximately 30 minutes incubation (room temperature, agitation, covered), the reaction was stopped with 50 μL 3M sulfuric acid. Plates were read at 450 nm on a Molecular Devices Versamax plate reader.
Inhibitor effect was expressed as a percentage of DMSO-treated control signal, and inhibition curves were calculated using a 4-parameter equation: y=A+((B−A)/(1+((C/x)^D))), where C is half-maximal activity or EC50.

T1 sequence (P27958 1027-1657, one chain of several): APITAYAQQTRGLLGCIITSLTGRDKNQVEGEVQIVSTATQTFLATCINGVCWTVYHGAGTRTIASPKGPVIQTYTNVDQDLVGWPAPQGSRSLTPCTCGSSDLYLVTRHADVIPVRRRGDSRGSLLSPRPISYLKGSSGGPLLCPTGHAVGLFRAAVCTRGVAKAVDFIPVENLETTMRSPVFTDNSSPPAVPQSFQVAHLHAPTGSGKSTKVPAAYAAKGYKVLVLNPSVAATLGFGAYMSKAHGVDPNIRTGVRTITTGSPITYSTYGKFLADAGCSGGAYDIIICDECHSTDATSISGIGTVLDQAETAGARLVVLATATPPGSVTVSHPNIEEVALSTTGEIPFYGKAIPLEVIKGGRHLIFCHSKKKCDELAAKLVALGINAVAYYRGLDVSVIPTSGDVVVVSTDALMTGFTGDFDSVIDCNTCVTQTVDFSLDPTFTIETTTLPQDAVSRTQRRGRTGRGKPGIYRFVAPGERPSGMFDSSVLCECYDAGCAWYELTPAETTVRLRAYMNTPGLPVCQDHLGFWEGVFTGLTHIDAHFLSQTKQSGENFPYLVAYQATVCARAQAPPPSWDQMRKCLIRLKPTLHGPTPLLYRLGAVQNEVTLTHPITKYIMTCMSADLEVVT

| SMILES | IC50 [1] | EC50 [2] |
| --- | --- | --- |
| C=C[C@@H]1C[C@]1(NC(=O)[C@@H]1C[C@@H](OC(=O)N2Cc3cccc(F)c3C2)CN1C(=O)[C@@H](Nc1ccc(Br)cc1)C(C)C)C(=O)NS(=O)(=O)C1CC1 [Compound 36, [(3R,5S)-5-((1R,2S)-1-(cyclopropylsulfonylcarbamoyl)-2-vinylcyclopropylcarbamoyl)-1-((S)-2-(4-bromophenylamino)-3-methylbutanoyl)pyrrolidin-3-yl]4-fluoroisoindoline-2-carboxylate] | < 0.1 µM | 0.1 to 1 µM |
| C=C[C@@H]1C[C@]1(NC(=O)[C@@H]1C[C@@H](OC(=O)N2Cc3cccc(F)c3C2)CN1C(=O)[C@@H](Nc1ccc(F)cc1)C(C)(C)C)C(=O)NS(=O)(=O)C1CC1 [Compound 37, [(3R,5S)-5-((1R,2S)-1-(cyclopropylsulfonylcarbamoyl)-2-vinylcyclopropylcarbamoyl)-1-((S)-2-(4-fluorophenylamino)-3,3-methylbutanoyl)pyrrolidin-3-yl]4-fluoroisoindoline-2-carboxylate] | < 0.1 µM | < 0.1 µM |
| C=C[C@@H]1C[C@]1(NC(=O)[C@@H]1C[C@@H](OC(=O)N2Cc3cccc(F)c3C2)CN1C(=O)[C@@H](Nc1ccc(C(C)(C)C)cc1)C(C)C)C(=O)NS(=O)(=O)C1CC1 [Compound 38, [(3R,5S)-1-((S)-2-(4-tert-butylphenylamino)-3-methylbutanoyl)-5-((1R,2S)-1-(cyclopropylsulfonylcarbamoyl)-2-vinylcyclopropylcarbamoyl)pyrrolidin-3-yl]4-fluoroisoindoline-2-carboxylate] | < 0.1 µM | 0.1 to 1 µM |
| C=C[C@@H]1C[C@]1(NC(=O)[C@@H]1C[C@@H](OC(=O)N2Cc3cccc(F)c3C2)CN1C(=O)[C@@H](Nc1ccc(F)nc1)C(C)C)C(=O)NS(=O)(=O)C1CC1 [Compound 39, [(3R,5S)-5-((1R,2S)-1-(cyclopropylsulfonylcarbamoyl)-2-vinylcyclopropylcarbamoyl)-1-((S)-2-(6-fluoropyridin-3-ylamino)-3-methylbutanoyl)pyrrolidin-3-yl]4-fluoroisoindoline-2-carboxylate] | < 0.1 µM | 0.1 to 1 µM |
| C=C[C@@H]1C[C@]1(NC(=O)[C@@H]1C[C@@H](OC(=O)N2Cc3cccc(F)c3C2)CN1C(=O)[C@@H](Nc1cccc(C(C)(C)C)c1)C(C)C)C(=O)NS(=O)(=O)C1CC1 [Compound 40, [(3R,5S)-1-((S)-2-(3-tert-butylphenylamino)-3-methylbutanoyl)-5-((1R,2S)-1-(cyclopropylsulfonylcarbamoyl)-2-vinylcyclopropylcarbamoyl)pyrrolidin-3-yl]4-fluoroisoindoline-2-carboxylate] | < 0.1 µM | < 0.1 µM |
| C=C[C@@H]1C[C@]1(NC(=O)[C@@H]1C[C@@H](OC(=O)N2Cc3cccc(Cl)c3C2)CN1C(=O)[C@@H](Nc1cccc(C(C)(C)C)c1)C(C)C)C(=O)NS(=O)(=O)C1CC1 [Compound 41, [(3R,5S)-1-((S)-2-(3-tert-butylphenylamino)-3-methylbutanoyl)-5-((1R,2S)-1-(cyclopropylsulfonylcarbamoyl)-2-vinylcyclopropylcarbamoyl)pyrrolidin-3-yl]4-chloroisoindoline-2-carboxylate] | < 0.1 µM | < 0.1 µM |
| C=C[C@@H]1C[C@]1(NC(=O)[C@@H]1C[C@@H](OC(=O)N2Cc3cccc(F)c3C2)CN1C(=O)[C@@H](Nc1cccc(C(F)(F)F)c1)C(C)C)C(=O)NS(=O)(=O)C1CC1 [Compound 42, [(3R,5S)-5-((1R,2S)-1-(cyclopropylsulfonylcarbamoyl)-2-vinylcyclopropylcarbamoyl)-1-((S)-3-methyl-2-(3-(trifluoromethyl)phenylamino)butanoyl)pyrrolidin-3-yl]4-fluoroisoindoline-2-carboxylate] | < 0.1 µM | < 0.1 µM |
| C=C[C@@H]1C[C@]1(NC(=O)[C@@H]1C[C@@H](OC(=O)N2Cc3cccc(F)c3C2)CN1C(=O)[C@@H](Nc1cccc(C(F)(F)F)c1)C(C)(C)C)C(=O)NS(=O)(=O)C1CC1 [Compound 43, [(3R,5S)-5-((1R,2S)-1-(cyclopropylsulfonylcarbamoyl)-2-vinylcyclopropylcarbamoyl)-1-((S)-3,3-dimethyl-2-(3-(trifluoromethyl)phenylamino)butanoyl)pyrrolidin-3-yl]4-fluoroisoindoline-2-carboxylate] | < 0.1 µM | < 0.1 µM |
